Test results taken from PubChem BioAssay (NCI).
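Dose response: 5 concentrations. Exposure: 48 h. Format: 96-well plates. Endpoint: linear interpolation; highest concentration if not reached. The concentration for full growth arrest is given as TGI.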

What was measured:
Experiment in all cases: DTP human tumour cell line panel, 48 h
MALME-3M melanoma = test system: MALME-3M melanoma
KM12 colon = test system: KM12 colon
HT29 colon = test system: HT29 colon
BT-549 breast = test system: BT-549 breast
IGROV1 ovarian = test system: IGROV1 ovarian
SK-MEL-5 melanoma = test system: SK-MEL-5 melanoma
SK-OV-3 ovarian = test system: SK-OV-3 ovarian

Row | Compound | TGI (MALME-3M melanoma) [µM] | TGI (KM12 colon) [µM] | TGI (HT29 colon) [µM] | TGI (BT-549 breast) [µM] | TGI (IGROV1 ovarian) [µM] | TGI (SK-MEL-5 melanoma) [µM] | TGI (SK-OV-3 ovarian) [µM]
1 | O=C1NC(=S)NC(=O)C1=Cc1ccc(-c2ccccc2)cc1 | > 100 | > 100 | > 100 | > 100 | > 100 | > 100 | > 100
2 | NC(=O)c1nnsc1NN=O | > 100 | > 100 | > 100 | – | > 100 | > 100 | > 100
3 | CCOC(=O)c1sc2c(c1O)c(=O)n(-c1ccccc1)c(=S)n2-c1ccccc1 | > 100 | > 100 | > 100 | > 100 | > 100 | > 100 | –
4 | CC(=O)OCC1OC(n2c(N)c(C#N)c(C)c(C#N)c2=S)C(OC(C)=O)C(OC(C)=O)C1OC(C)=O (stereo not drawn) | > 100 | > 100 | > 100 | > 100 | > 100 | > 100 | > 100
5 | COc1cc(C2c3cc4c(cc3OC(NCCc3ccccc3)C2C)OCO4)cc(OC)c1OC (stereo not drawn) | 17.6 | 4.12 | 11.1 | 22.7 | 27 | 4.82 | > 100
6 | Cc1nc(C)c(N2CCN(C(=O)O)CC2)c(=O)[nH]1 | > 100 | > 100 | > 100 | > 100 | > 100 | > 100 | > 100
7 | CCN(CC)c1ccc2cc(C(=O)NCc3ccccc3)c(=N)oc2c1 | 63.6 | > 100 | 36 | > 100 | > 100 | > 100 | > 100
8 | CN=C(N)N=Nc1c(O)[nH]c2ccccc12 | > 100 | > 100 | > 100 | > 100 | > 100 | > 100 | > 100
9 | NC(N)=NS(=O)(=O)c1ccc(NNC(=O)c2cccc3c(=O)c4ccccc4[nH]c23)cc1 | 35.4 | 57 | 41.8 | 73.6 | > 100 | 36.1 | 89.2
10 | C=C1C(=O)O[C@H]2C/C(C)=C/CC[C@]3(C)CCC[C@](C)(CC[C@@H]12)O3 | – | 17.4 | 15.2 | – | 14.5 | 13.8 | > 50
11 | CN(C)/C=N\c1nncc2[nH]cnc12 | > 100 | > 100 | > 100 | > 100 | > 100 | > 100 | > 100
12 | COC(=O)c1nn2ccc3ccccc3c2c1C(=O)OC | > 100 | > 100 | > 100 | > 100 | > 100 | > 100 | > 100
13 | CSc1nn(C)cc2nc(C)nc1-2 | – | > 100 | > 100 | > 100 | > 100 | > 100 | –
14 | CCOC(=O)N(C)C(=C(F)F)C(F)(F)F | 33.5 | > 100 | 78.2 | – | 62.4 | 30 | > 100
15 | O=C(Cn1c(=O)oc2ccc(C(=O)c3ccc(F)cc3)cc21)c1ccccc1 | > 100 | > 100 | > 100 | – | > 100 | > 100 | > 100
16 | Cc1cccc(/C=N\NC(=S)N2CCCCC2)n1 | > 100 | > 100 | > 100 | – | 0.0702 | 0.187 | > 100
17 | COc1cc(COC(=O)N2CC=CC2C(=O)O)c([N+](=O)[O-])cc1OC (stereo not drawn) | > 100 | > 100 | > 100 | > 100 | > 100 | > 100 | > 100
18 | CC1(C)S[C@H](CN)N[C@H]1C(=O)OC(c1ccccc1)c1ccccc1 | 83.8 | > 100 | > 100 | 92.2 | > 100 | 31.4 | > 100
19 | CCN(CC)c1ccc(C2Nc3ccc4ccccc4c3C3=C2C(=O)CCC3)cc1 (stereo not drawn) | > 100 | > 100 | > 100 | > 100 | – | – | > 100
20 | COC(=O)n1c(C)c(C=O)c2ccc(OC)cc21 | > 100 | 89.9 | > 100 | 73.2 | > 100 | 57.5 | > 100
21 | O=[N+]([O-])c1ccc(C2=NOC(c3ccc(Cl)cc3)N2C23CC4CC(CC(C4)C2)C3)cc1 (stereo not drawn) | > 100 | > 100 | > 100 | > 100 | > 100 | > 100 | > 100
22 | O=C(c1ccccc1)c1ccc2c(c1)nc1n2C(c2c(F)cccc2F)SC1 (stereo not drawn) | > 100 | 66.7 | 55.9 | > 100 | > 100 | 27.8 | > 100
23 | CCc1cc2c(c3c1CCCC3)CC1(Cc3ccc(C(=O)OC)cc3C1)C2 (stereo not drawn) | > 100 | > 100 | > 100 | > 100 | > 100 | > 100 | > 100
24 | CCCCCCNC(=S)N/N=C(\C)c1ccccn1 | 16.8 | 8.97 | 19.4 | 16.8 | 18.4 | 14.7 | 21.6
25 | CCN(CC)C(=S)SC1C(=O)NC(=O)NC1=O | > 100 | > 100 | > 100 | > 100 | > 100 | > 100 | > 100
26 | COc1cccc(C=C2N=C(c3ccccc3)N(n3c(-c4ccccc4)nc4ccccc4c3=O)C2=O)c1 | > 100 | > 100 | > 100 | > 100 | > 100 | > 100 | > 100
27 | CN1N=C(c2ccccc2)C(C(c2ccccc2[N+](=O)[O-])C2C(=O)N(C)N=C2c2ccccc2)C1=O (stereo not drawn) | > 100 | > 100 | > 100 | > 100 | > 31.6 | > 100 | > 100
